Test results taken from patent US8217035B2, “Pyrimidine derivatives used as PI-3-kinase inhibitors” (Novartis AG, priority 2006, dated 2012).
Like-named read-outs stand apart in the source and are kept apart here. Each block holds one compound with its values, some of them ahead of it.

Key:
[1] = tested on: A2780 ovarian cancer cells; experiment: Cellular proliferation in A2780 cells, Cell Titer Glo (Biological Method 4); type: cell-based; conditions: Homo sapiens
Method in brief: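 Viability after 72 h compound exposure (37 °C, 5% CO2) was read by Cell Titer Glo and an EC50 derived, each condition in duplicate. A2780 ovarian cells had been plated at 1,000 per well in DMEM/10% FBS at least 2 h beforehand.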

PI3 kinase alpha = PI3 kinase alpha (Homo sapiens, UniProt P42336); experiment: PI3K ATP depletion assay (Biological Method 1, Assay 3; KinaseGlo luminescence); type: biochemical; conditions: ATP depletion assay, read-out: PI3 Kinase Alpha, IC50
Method in brief: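 Compound in DMSO was mixed with 10 nM PI3 kinase and 5 μg/mL phosphatidylinositol, and the reaction was started with 2 μM ATP. It ran to about 50% ATP depletion and was stopped with KinaseGlo.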

[2] = tested on: pSer473 Akt in A2780 cells; experiment: pSer473 Akt assay to monitor PI3K pathway in A2780 cells (Biological Method 2, MSD); type: cell-based; conditions: Homo sapiens, inhibition of Akt phosphorylation
Method in brief: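 A2780 ovarian cancer cells in DMEM/10% FBS were treated with compound for 1 h at 37 °C, then lysed. pSer473-Akt and total Akt were measured by MSD electrochemiluminescence immunoassay. The pSer473/total Akt ratio gave % inhibition versus DMSO, from which EC50 was derived.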

[3] = ovarian cancer cell line A2780, Biological Method 4

Sequence of PI3 kinase alpha (P42336 whole entry): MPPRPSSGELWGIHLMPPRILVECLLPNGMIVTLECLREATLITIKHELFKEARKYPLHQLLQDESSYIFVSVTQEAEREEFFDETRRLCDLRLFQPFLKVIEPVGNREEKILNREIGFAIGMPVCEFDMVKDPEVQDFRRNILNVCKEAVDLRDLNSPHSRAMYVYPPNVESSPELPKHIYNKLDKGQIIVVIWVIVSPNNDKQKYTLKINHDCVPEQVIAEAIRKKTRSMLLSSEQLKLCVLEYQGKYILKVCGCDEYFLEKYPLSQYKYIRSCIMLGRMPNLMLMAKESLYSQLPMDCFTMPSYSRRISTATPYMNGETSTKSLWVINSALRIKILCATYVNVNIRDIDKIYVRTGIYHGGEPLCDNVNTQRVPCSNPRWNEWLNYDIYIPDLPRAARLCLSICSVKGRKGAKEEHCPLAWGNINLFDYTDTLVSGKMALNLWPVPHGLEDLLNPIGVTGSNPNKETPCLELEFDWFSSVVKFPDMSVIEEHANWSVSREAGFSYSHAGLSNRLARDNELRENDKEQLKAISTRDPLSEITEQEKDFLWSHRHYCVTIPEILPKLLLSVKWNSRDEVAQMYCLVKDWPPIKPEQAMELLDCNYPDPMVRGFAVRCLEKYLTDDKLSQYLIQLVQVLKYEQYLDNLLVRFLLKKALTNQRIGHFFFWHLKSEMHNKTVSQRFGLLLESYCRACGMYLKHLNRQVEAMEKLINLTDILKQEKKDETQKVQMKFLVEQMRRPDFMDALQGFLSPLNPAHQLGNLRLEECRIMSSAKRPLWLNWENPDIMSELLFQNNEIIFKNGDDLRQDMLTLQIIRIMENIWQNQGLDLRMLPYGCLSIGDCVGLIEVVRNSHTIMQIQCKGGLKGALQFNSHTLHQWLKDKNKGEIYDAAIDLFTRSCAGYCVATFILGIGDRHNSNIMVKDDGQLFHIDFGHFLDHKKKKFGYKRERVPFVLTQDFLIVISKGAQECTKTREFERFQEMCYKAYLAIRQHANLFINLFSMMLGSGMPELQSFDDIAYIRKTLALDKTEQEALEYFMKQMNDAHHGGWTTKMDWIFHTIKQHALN
Sequence of PI3 kinase alpha (P27986 whole entry partner): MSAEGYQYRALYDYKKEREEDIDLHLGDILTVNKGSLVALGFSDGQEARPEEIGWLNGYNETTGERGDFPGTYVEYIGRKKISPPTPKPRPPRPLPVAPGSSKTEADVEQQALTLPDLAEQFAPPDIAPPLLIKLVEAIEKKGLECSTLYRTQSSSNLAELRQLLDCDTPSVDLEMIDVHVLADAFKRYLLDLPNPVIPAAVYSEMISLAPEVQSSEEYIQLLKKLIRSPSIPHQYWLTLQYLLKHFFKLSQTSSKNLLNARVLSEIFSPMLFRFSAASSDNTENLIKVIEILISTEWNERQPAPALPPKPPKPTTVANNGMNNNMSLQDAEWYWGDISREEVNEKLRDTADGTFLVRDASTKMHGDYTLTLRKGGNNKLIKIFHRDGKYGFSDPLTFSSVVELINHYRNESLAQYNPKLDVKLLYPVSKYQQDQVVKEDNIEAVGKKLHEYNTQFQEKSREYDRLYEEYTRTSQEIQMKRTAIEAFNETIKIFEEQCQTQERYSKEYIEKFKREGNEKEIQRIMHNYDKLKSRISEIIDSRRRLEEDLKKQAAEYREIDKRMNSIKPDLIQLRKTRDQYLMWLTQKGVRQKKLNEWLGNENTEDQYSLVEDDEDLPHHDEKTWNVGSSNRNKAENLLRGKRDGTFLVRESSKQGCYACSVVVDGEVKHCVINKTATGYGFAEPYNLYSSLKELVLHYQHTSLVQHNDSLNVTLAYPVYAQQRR

SMILES: COc1ccc(Nc2cc(-c3cnc(N)nc3N)nc(N3CCOCC3)n2)cn1 [Compound 73]
EC50 ([1]; ovarian cancer cell line A2780): < 10 µM
IC50 (PI3 kinase alpha): < 1 µM
EC50 ([2]; A2780 cells): < 1 µM

SMILES: CN1CCC(Oc2ccc(Nc3cc(-c4cnc(N)cc4C(F)(F)F)nc(N4CCOCC4)n3)cn2)CC1 [Compound 116]
EC50 ([1]; ovarian cancer cell line A2780): < 10 µM
IC50 (PI3 kinase alpha): < 1 µM
EC50 ([2]; A2780 cells): < 1 µM

SMILES: CC(=O)Nc1cc(-c2cnc(N)nc2)nc(N2CCOCC2)n1 [Compound 205]
EC50 [1, 3]: < 10 µM
IC50 (PI3 kinase alpha; Biological Method 1): < 1 µM
EC50 ([2]; A2780, Biological Method 2): < 1 µM

SMILES: CS(=O)(=O)c1ccc(Nc2cc(-c3cnc(N)[nH]c3=O)nc(N3CCOCC3)n2)cn1 [Compound 208]
EC50 [1, 3]: < 25 µM
IC50 (PI3 kinase alpha; Biological Method 1): < 1 µM
EC50 ([2]; A2780, Biological Method 2): < 10 µM

SMILES: CC(C)N1CC[C@H](Oc2ccc(Nc3cc(-c4cnc(N)cc4C(F)(F)F)nc(N4CCOCC4)n3)cn2)C1 [Compound 188]
EC50 ([1]; ovarian cancer cell line A2780): < 10 µM
IC50 (PI3 kinase alpha): < 1 µM
EC50 ([2]; A2780 cells): < 1 µM

SMILES: CCc1c(Nc2cnc3ccccc3c2)nc(N2CCOCC2)nc1-c1ccc(N)nc1 [Compound 213]
EC50 [1, 3]: < 1 µM
IC50 (PI3 kinase alpha; Biological Method 1): < 1 µM
EC50 ([2]; A2780, Biological Method 2): < 10 µM

SMILES: Nc1ncc(-c2cc(OC3CCN(C(=O)OCc4ccccc4)CC3)nc(N3CCOCC3)n2)c(C(F)(F)F)n1 [Compound 176]
EC50 ([1]; ovarian cancer cell line A2780): < 10 µM
IC50 (PI3 kinase alpha): < 1 µM
EC50 ([2]; A2780 cells): < 1 µM

SMILES: COc1ccnc(Nc2cc(-c3ccc(N)nc3)nc(N3CCOCC3)n2)c1 [Compound 148]
EC50 ([1]; ovarian cancer cell line A2780): < 25 µM
IC50 (PI3 kinase alpha): < 1 µM
EC50 ([2]; A2780 cells): < 1 µM

SMILES: CC(C)C(=O)N1CCC[C@H](Oc2cc(-c3cnc(N)nc3N)nc(N3CCOCC3)n2)C1 [Compound 72]
EC50 ([1]; ovarian cancer cell line A2780): < 10 µM
IC50 (PI3 kinase alpha): < 1 µM
EC50 ([2]; A2780 cells): < 1 µM

SMILES: Nc1ncc(-c2cc(Nc3cnc4ccccc4c3)nc(N3CCOCC3)n2)cc1F [Compound 202]
EC50 [1, 3]: < 1 µM
IC50 (PI3 kinase alpha; Biological Method 1): < 1 µM
EC50 ([2]; A2780, Biological Method 2): < 1 µM

SMILES: N#Cc1cnc(Nc2cc(-c3cnc(N)cc3C(F)(F)F)nc(N3CCOCC3)n2)s1 [Compound 144]
EC50 ([1]; ovarian cancer cell line A2780): < 10 µM
IC50 (PI3 kinase alpha): < 1 µM
EC50 ([2]; A2780 cells): < 1 µM

SMILES: Nc1cc(C(F)(F)F)c(-c2cc(-c3nccs3)nc(N3CCOCC3)n2)cn1 [Compound 138]
EC50 ([1]; ovarian cancer cell line A2780): < 10 µM
IC50 (PI3 kinase alpha): < 1 µM
EC50 ([2]; A2780 cells): < 1 µM

SMILES: Nc1ccc(-c2cc(Nc3ccccc3N3CCOCC3)nc(N3CCOCC3)n2)cn1 [Compound 180]
EC50 ([1]; ovarian cancer cell line A2780): < 10 µM
IC50 (PI3 kinase alpha): < 1 µM
EC50 ([2]; A2780 cells): < 1 µM

SMILES: CC(C)N1CCC(Oc2cncc(-c3cc(-c4cnc(N)cc4C(F)(F)F)nc(N4CCOCC4)n3)c2)CC1 [Compound 79]
EC50 ([1]; ovarian cancer cell line A2780): < 10 µM
IC50 (PI3 kinase alpha): < 1 µM
EC50 ([2]; A2780 cells): < 1 µM

SMILES: Nc1ccc(-c2cc(Nc3ccc(S(N)(=O)=O)cc3)nc(N3CCOCC3)n2)cn1 [Compound 190]
EC50 ([1]; ovarian cancer cell line A2780): < 10 µM
IC50 (PI3 kinase alpha): < 1 µM
EC50 ([2]; A2780 cells): < 1 µM

SMILES: CS(=O)(=O)c1cccc(Nc2cc(-c3ccc(N)nc3)nc(N3CCOCC3)n2)c1 [Compound 139]
EC50 ([1]; ovarian cancer cell line A2780): < 10 µM
IC50 (PI3 kinase alpha): < 1 µM
EC50 ([2]; A2780 cells): < 1 µM

SMILES: CS(=O)(=O)c1ccc(Nc2cc(-c3cnc(N)nc3C(F)(F)F)nc(N3CCOCC3)n2)cn1 [Compound 78]
EC50 ([1]; ovarian cancer cell line A2780): < 1 µM
IC50 (PI3 kinase alpha): < 1 µM
EC50 ([2]; A2780 cells): < 1 µM

SMILES: CS(=O)(=O)Nc1ncccc1-c1cc(-c2cnc(N)cc2Cl)nc(N2CCOCC2)n1 [Compound 170]
EC50 ([1]; ovarian cancer cell line A2780): < 1 µM
IC50 (PI3 kinase alpha): < 1 µM
EC50 ([2]; A2780 cells): < 1 µM

Now from value to compound:

EC50 ([1]; ovarian cancer cell line A2780): < 1 µM
IC50 (PI3 kinase alpha): < 1 µM
EC50 ([2]; A2780 cells): < 1 µM
SMILES: COc1ccc2cc(Nc3cc(-c4cnc(N)nc4)nc(N4CCOCC4)n3)cnc2c1 [Compound 60]

EC50 ([1]; ovarian cancer cell line A2780): < 1 µM
IC50 (PI3 kinase alpha): < 1 µM
EC50 ([2]; A2780 cells): < 1 µM
SMILES: CN1CCC(Oc2ccc(Nc3cc(-c4cnc(N)nc4)nc(N4CCOCC4)n3)cn2)C1 (stereo not drawn) [Compound 35]

EC50 ([1]; ovarian cancer cell line A2780): < 1 µM
IC50 (PI3 kinase alpha): < 1 µM
EC50 ([2]; A2780 cells): < 1 µM
SMILES: Nc1cc(C(F)(F)F)c(-c2cc(Nc3ccncc3C(F)(F)F)nc(N3CCOCC3)n2)cn1 [Compound 153]

EC50 ([1]; ovarian cancer cell line A2780): < 1 µM
IC50 (PI3 kinase alpha): < 1 µM
EC50 ([2]; A2780 cells): < 1 µM
SMILES: COc1nc(N)ncc1-c1cc(Nc2cnc3ccccc3c2)nc(N2CCOCC2)n1 [Compound 161]

EC50 ([1]; ovarian cancer cell line A2780): < 1 µM
IC50 (PI3 kinase alpha): < 1 µM
EC50 ([2]; A2780 cells): < 1 µM
SMILES: Nc1ccc(-c2cc(Nc3cnc4ccccc4c3)nc(N3CCOCC3)n2)c(Cl)n1 [Compound 195]

EC50 ([1]; ovarian cancer cell line A2780): < 1 µM
IC50 (PI3 kinase alpha): < 1 µM
EC50 ([2]; A2780 cells): < 1 µM
SMILES: COc1cccc2ncc(Nc3cc(-c4ccc(N)nc4)nc(N4CCOCC4)n3)cc12 [Compound 156]

EC50 ([1]; ovarian cancer cell line A2780): < 1 µM
IC50 (PI3 kinase alpha): < 1 µM
EC50 ([2]; A2780 cells): < 1 µM
SMILES: CN(C)CCOc1ccc(Nc2cc(-c3cnc(N)nc3)nc(N3CCOCC3)n2)cn1 [Compound 36]

EC50 ([1]; ovarian cancer cell line A2780): < 1 µM
IC50 (PI3 kinase alpha): < 1 µM
EC50 ([2]; A2780 cells): < 1 µM
SMILES: Nc1ncc(-c2cc(OC3CCOCC3)nc(N3CCOCC3)n2)c(=O)[nH]1 [Compound 50]

EC50 ([1]; ovarian cancer cell line A2780): < 1 µM
IC50 (PI3 kinase alpha): < 1 µM
EC50 ([2]; A2780 cells): < 1 µM
SMILES: Nc1ncc(-c2cc(Nc3ccc(Oc4cccnc4)nc3)nc(N3CCOCC3)n2)cn1 [Compound 64]

EC50 ([1]; ovarian cancer cell line A2780): < 1 µM
IC50 (PI3 kinase alpha): < 1 µM
EC50 ([2]; A2780 cells): < 1 µM
SMILES: CC(C)C(=O)N1CCC(Oc2cc(-c3cnc(N)[nH]c3=O)nc(N3CCOCC3)n2)CC1 [Compound 49]

EC50 ([1]; ovarian cancer cell line A2780): < 1 µM
IC50 (PI3 kinase alpha): < 1 µM
EC50 ([2]; A2780 cells): < 1 µM
SMILES: COc1cccc2ncc(Nc3cc(-c4cnc(N)nc4C(F)(F)F)nc(N4CCOCC4)n3)cc12 [Compound 54]

EC50 ([1]; ovarian cancer cell line A2780): < 1 µM
IC50 (PI3 kinase alpha): < 1 µM
EC50 ([2]; A2780 cells): < 1 µM
SMILES: Cc1cc(Nc2cc(-c3cnc(N)nc3N)nc(N3CCOCC3)n2)ccn1 [Compound 53]

EC50 ([1]; ovarian cancer cell line A2780): < 1 µM
IC50 (PI3 kinase alpha): < 1 µM
EC50 ([2]; A2780 cells): < 1 µM
SMILES: CC(=O)N1CCC(Oc2cc(-c3cnc(N)[nH]c3=O)nc(N3CCOCC3)n2)CC1 [Compound 30]

EC50 ([1]; ovarian cancer cell line A2780): < 1 µM
IC50 (PI3 kinase alpha): < 1 µM
EC50 ([2]; A2780 cells): < 1 µM
SMILES: COc1ccc2ncc(Nc3cc(-c4cnc(N)nc4C)nc(N4CCOCC4)n3)cc2c1 [Compound 154]

EC50 ([1]; ovarian cancer cell line A2780): < 1 µM
IC50 (PI3 kinase alpha): < 1 µM
EC50 ([2]; A2780 cells): < 1 µM
SMILES: CCN(CC)CCc1csc(Nc2cc(-c3cnc(N)cc3C(F)(F)F)nc(N3CCOCC3)n2)n1 [Compound 13]

EC50 ([1]; ovarian cancer cell line A2780): < 1 µM
IC50 (PI3 kinase alpha): < 1 µM
EC50 ([2]; A2780 cells): < 1 µM
SMILES: CS(=O)(=O)c1cc(Nc2cc(-c3cnc(N)cc3C(F)(F)F)nc(N3CCOCC3)n2)ccn1 [Compound 90]

EC50 ([1]; ovarian cancer cell line A2780): < 1 µM
IC50 (PI3 kinase alpha): < 1 µM
EC50 ([2]; A2780 cells): < 1 µM
SMILES: Nc1ncc(-c2cc(OC3CCN(C(=O)c4ccccc4)CC3)nc(N3CCOCC3)n2)c(C(F)(F)F)n1 [Compound 124]

EC50 ([1]; ovarian cancer cell line A2780): < 1 µM
IC50 (PI3 kinase alpha): < 1 µM
EC50 ([2]; A2780 cells): < 1 µM
SMILES: CN1CCC(Oc2ccc(Nc3cc(-c4cnc(N)nc4C(F)(F)F)nc(N4CCOCC4)n3)cn2)CC1 [Compound 62]

EC50 ([1]; ovarian cancer cell line A2780): < 1 µM
IC50 (PI3 kinase alpha): < 1 µM
EC50 ([2]; A2780 cells): < 1 µM
SMILES: Nc1ncc(-c2cc(Oc3cccnc3)nc(N3CCOCC3)n2)cn1 [Compound 8]

EC50 ([1]; ovarian cancer cell line A2780): < 1 µM
IC50 (PI3 kinase alpha): < 1 µM
EC50 ([2]; A2780 cells): < 1 µM
SMILES: CS(=O)(=O)N1CCC(Oc2cc(-c3cnc(N)nc3C(F)(F)F)nc(N3CCOCC3)n2)CC1 [Compound 74]

EC50 ([1]; ovarian cancer cell line A2780): < 1 µM
IC50 (PI3 kinase alpha): < 1 µM
EC50 ([2]; A2780 cells): < 1 µM
SMILES: CCN(CC)Cc1cnc(Nc2cc(-c3cnc(N)nc3C(F)(F)F)nc(N3CCOCC3)n2)s1 [Compound 40]

EC50 ([1]; ovarian cancer cell line A2780): < 1 µM
IC50 (PI3 kinase alpha): < 1 µM
EC50 ([2]; A2780 cells): < 1 µM
SMILES: CS(=O)(=O)c1cccc(-c2cc(-c3cnc(N)cc3Cl)nc(N3CCOCC3)n2)c1 [Compound 165]

EC50 ([1]; ovarian cancer cell line A2780): < 1 µM
IC50 (PI3 kinase alpha): < 1 µM
EC50 ([2]; A2780 cells): < 1 µM
SMILES: CCOc1cc(Nc2cc(-c3ccc(N)nc3)nc(N3CCOCC3)n2)ccn1 [Compound 102]

EC50 ([1]; ovarian cancer cell line A2780): < 1 µM
IC50 (PI3 kinase alpha): < 1 µM
EC50 ([2]; A2780 cells): < 1 µM
SMILES: CN1CCN(c2ccc(Nc3cc(-c4cnc(N)nc4)nc(N4CCOCC4)n3)cn2)CC1 [Compound 51]

EC50 ([1]; ovarian cancer cell line A2780): < 1 µM
IC50 (PI3 kinase alpha): < 1 µM
EC50 ([2]; A2780 cells): < 1 µM
SMILES: Nc1ncc(-c2cc(N3CCOC(c4ccccc4)C3)nc(N3CCOCC3)n2)cn1 (stereo not drawn) [Compound 15]
